Test results reported in patent US9133158B2, “Bicyclic dihydroisoquinoline-1-one derivatives” (Hoffmann-La Roche Inc., priority 2011, dated 2015).

Experiments:
[1] = target: T1, human CYP11B2 (Homo sapiens, UniProt P19099); assay: G-402 cellular enzyme assay, human CYP11B2 (aldosterone release, HTRF); assay type: cell-based; settings: G-402 cells, 1 μM Deoxycorticosterone
T1 construct: expressed in transfected cells
T1 sequence (P19099 25-503): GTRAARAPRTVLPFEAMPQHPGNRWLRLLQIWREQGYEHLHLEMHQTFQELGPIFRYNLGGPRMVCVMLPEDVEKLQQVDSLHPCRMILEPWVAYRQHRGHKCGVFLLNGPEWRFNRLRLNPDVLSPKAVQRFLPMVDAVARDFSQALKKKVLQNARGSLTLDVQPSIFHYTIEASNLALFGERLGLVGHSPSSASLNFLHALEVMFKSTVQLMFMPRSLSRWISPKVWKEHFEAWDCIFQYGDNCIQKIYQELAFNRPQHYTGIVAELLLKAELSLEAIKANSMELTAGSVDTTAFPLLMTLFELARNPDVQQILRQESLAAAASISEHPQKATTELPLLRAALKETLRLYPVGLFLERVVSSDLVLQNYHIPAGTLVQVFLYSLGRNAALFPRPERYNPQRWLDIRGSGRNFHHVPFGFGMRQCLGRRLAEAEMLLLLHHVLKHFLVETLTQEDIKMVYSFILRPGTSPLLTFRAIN
In short: (§1)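 G-402 cells stably expressing human CYP11B1 or CYP11B2 incubated 16 h in DMEM/F12 with 2.5% charcoal-treated FCS, compound, and 1 μM 11-deoxycortisol (B1) or 1 μM deoxycorticosterone (B2). Cortisol (B1) or aldosterone (B2) in supernatant measured by HTRF; EC50 from 4-parameter MMF fit.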

[2] = target: T2, human CYP11B1 (Homo sapiens, UniProt P15538); assay: G-402 cellular enzyme assay, human CYP11B1 (cortisol release, HTRF); assay type: cell-based; settings: G-402 cells, 1 μM Deoxycortisol
T2 construct: expressed in transfected cells
T2 sequence (P15538 25-503): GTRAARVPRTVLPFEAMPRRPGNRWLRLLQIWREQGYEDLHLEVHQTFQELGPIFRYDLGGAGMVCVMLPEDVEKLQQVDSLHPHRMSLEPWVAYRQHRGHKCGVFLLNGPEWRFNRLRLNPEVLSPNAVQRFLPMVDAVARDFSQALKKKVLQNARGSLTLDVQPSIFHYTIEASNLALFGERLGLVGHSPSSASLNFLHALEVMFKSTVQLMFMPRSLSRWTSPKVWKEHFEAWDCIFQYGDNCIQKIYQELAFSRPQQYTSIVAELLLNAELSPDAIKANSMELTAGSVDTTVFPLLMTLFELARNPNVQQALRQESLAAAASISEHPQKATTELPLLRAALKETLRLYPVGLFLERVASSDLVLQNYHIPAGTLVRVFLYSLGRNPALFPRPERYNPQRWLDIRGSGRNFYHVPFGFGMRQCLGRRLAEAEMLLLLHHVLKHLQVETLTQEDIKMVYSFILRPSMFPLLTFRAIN
In short: as §1

SMILES | EC50 [1] | EC50 [2]
O=C1c2ccc(Cl)cc2CCN1c1cncc(Cn2ccc3c(F)cccc32)c1 [Example 186, 6-Chloro-2-[5-(4-fluoro-indol-1-ylmethyl)-pyridin-3-yl]-3,4-dihydro-2H-isoquinolin-1-one] | 0.0232 µM | 0.211 µM
Cc1cnn(Cc2cncc(N3CCc4cc(Cl)ccc4C3=O)c2)c1 [Example 187, 6-Chloro-2-[5-(4-methyl-pyrazol-1-ylmethyl)-pyridin-3-yl]-3,4-dihydro-2H-isoquinolin-1-one] | 0.137 µM | 2.23 µM
O=C1c2ccc(Cl)cc2CCN1c1cncc(Cn2ccnc2C2CC2)c1 [Example 188, 6-Chloro-2-[5-(2-cyclopropyl-imidazol-1-ylmethyl)-pyridin-3-yl]-3,4-dihydro-2H-isoquinolin-1-one] | 0.228 µM | 4.15 µM
Cc1ccn(Cc2cncc(N3CCc4cc(Cl)ccc4C3=O)c2)n1 [Example 190, 6-Chloro-2-[5-(3-methyl-pyrazol-1-ylmethyl)-pyridin-3-yl]-3,4-dihydro-2H-isoquinolin-1-one] | 0.328 µM | 7.32 µM
CCc1nccn1Cc1cncc(N2CCc3cc(Cl)ccc3C2=O)c1 [Example 191, 6-Chloro-2-[5-(2-ethyl-imidazol-1-ylmethyl)-pyridin-3-yl]-3,4-dihydro-2H-isoquinolin-1-one] | 0.394 µM | 8.55 µM
O=C1c2ccc(Cl)cc2CCN1c1cncc(COC2CCC2)c1 [Example 203, 6-Chloro-2-(5-cyclobutoxymethyl-pyridin-3-yl)-3,4-dihydro-2H-isoquinolin-1-one] | 0.0224 µM | 0.212 µM
Cc1noc(C)c1Cc1cncc(N2CCc3cc(Cl)ccc3C2=O)c1 [Example 204, 6-Chloro-2-[5-(3,5-dimethyl-isoxazol-4-ylmethyl)-pyridin-3-yl]-3,4-dihydro-2H-isoquinolin-1-one] | 0.0408 µM | 0.9 µM
CS(=O)(=O)c1ccc(Cc2cncc(N3CCc4cc(Cl)ccc4C3=O)c2)cc1 [Example 205, 6-Chloro-2-[5-(4-methanesulfonyl-benzyl)-pyridin-3-yl]-3,4-dihydro-2H-isoquinolin-1-one] | 0.0005 µM | 0.0006 µM
Cc1ccc(Cc2cncc(N3CCc4cc(Cl)ccc4C3=O)c2)cn1 [Example 206, 6-Chloro-2-[5-(6-methyl-pyridin-3-ylmethyl)-pyridin-3-yl]-3,4-dihydro-2H-isoquinolin-1-one] | 0.0017 µM | 0.0068 µM
O=C1c2ccc(Cl)cc2CCN1c1cncc(Cc2ccc(N3CCOCC3)nc2)c1 [Example 207, 6-Chloro-2-[5-(6-morpholin-4-yl-pyridin-3-ylmethyl)-pyridin-3-yl]-3,4-dihydro-2H-isoquinolin-1-one] | 0.0028 µM | 0.0182 µM
O=C1c2ccc(Cl)cc2CCN1c1cncc(Cc2c(Cl)cccc2Cl)c1 [Example 214, 6-Chloro-2-[5-(2,6-dichloro-benzyl)-pyridin-3-yl]-3,4-dihydro-2H-isoquinolin-1-one] | 0.0636 µM | 0.3 µM
O=C1c2ccc(Cl)cc2CCN1c1cncc(Cc2c(F)cccc2Cl)c1 [Example 215, 6-Chloro-2-[5-(2-chloro-6-fluoro-benzyl)-pyridin-3-yl]-3,4-dihydro-2H-isoquinolin-1-one] | 0.0296 µM | 0.137 µM
O=C1c2ccc(Cl)cc2CCN1c1cncc(Cc2ccc(Cl)c(Cl)c2)c1 [Example 216, 6-Chloro-2-[5-(3,4-dichloro-benzyl)-pyridin-3-yl]-3,4-dihydro-2H-isoquinolin-1-one] | 0.0381 µM | 0.364 µM

The remaining lines, values ahead:

EC50 [1] | EC50 [2] | SMILES
0.0553 µM | 0.71 µM | O=C1c2ccc(Cl)cc2CCN1c1cncc(Cn2ccnc2C(F)(F)F)c1 [Example 189, 6-Chloro-2-[5-(2-trifluoromethyl-imidazol-1-ylmethyl)-pyridin-3-yl]-3,4-dihydro-2H-isoquinolin-1-one]
2.2 µM | 10.3 µM | NCc1cncc(N2CCc3cc(Cl)ccc3C2=O)c1 [Example 192, 2-(5-Aminomethyl-pyridin-3-yl)-6-chloro-3,4-dihydro-2H-isoquinolin-1-one]
0.0201 µM | 0.217 µM | COCc1cncc(N2CCc3cc(Cl)ccc3C2=O)c1 [Example 193, 6-Chloro-2-(5-methoxymethyl-pyridin-3-yl)-3,4-dihydro-2H-isoquinolin-1-one]
0.0203 µM | 0.224 µM | CC(C)OCc1cncc(N2CCc3cc(Cl)ccc3C2=O)c1 [Example 194, 6-Chloro-2-(5-isopropoxymethyl-pyridin-3-yl)-3,4-dihydro-2H-isoquinolin-1-one]
0.0373 µM | 0.486 µM | CC(OCc1cncc(N2CCc3cc(Cl)ccc3C2=O)c1)C(F)(F)F (centres unmarked) [Example 195, 6-Chloro-2-[5-(2,2,2-trifluoro-1-methyl-ethoxymethyl)-pyridin-3-yl]-3,4-dihydro-2H-isoquinolin-1-one]
0.178 µM | 1.03 µM | CN1CCCC1CCOCc1cncc(N2CCc3cc(Cl)ccc3C2=O)c1 (centres unmarked) [Example 196, 6-Chloro-2-{5-[2-(1-methyl-pyrrolidin-2-yl)-ethoxymethyl]-pyridin-3-yl}-3,4-dihydro-2H-isoquinolin-1-one]
0.0468 µM | 0.555 µM | O=C1c2ccc(Cl)cc2CCN1c1cncc(COC2CCCC2)c1 [Example 197, 6-Chloro-2-(5-cyclopentyloxymethyl-pyridin-3-yl)-3,4-dihydro-2H-isoquinolin-1-one]
2.45 µM | 0.99 µM | O=C1c2ccc(Cl)cc2CCN1c1cncc(COCC2CC2)c1 [Example 198, 6-Chloro-2-(5-cyclopropylmethoxymethyl-pyridin-3-yl)-3,4-dihydro-2H-isoquinolin-1-one]
0.104 µM | 0.282 µM | O=C1c2ccc(Cl)cc2CCN1c1cncc(COc2ccccc2F)c1 [Example 199, 6-Chloro-2-[5-(2-fluoro-phenoxymethyl)-pyridin-3-yl]-3,4-dihydro-2H-isoquinolin-1-one]
0.0325 µM | 0.315 µM | CC1(COCc2cncc(N3CCc4cc(Cl)ccc4C3=O)c2)CC1 [Example 200, 6-Chloro-2-[5-(1-methyl-cyclopropylmethoxymethyl)-pyridin-3-yl]-3,4-dihydro-2H-isoquinolin-1-one]
0.0304 µM | 0.293 µM | O=C1c2ccc(Cl)cc2CCN1c1cncc(COCC2CCCO2)c1 (centres unmarked) [Example 201, 6-Chloro-2-[5-(tetrahydro-furan-2-ylmethoxymethyl)-pyridin-3-yl]-3,4-dihydro-2H-isoquinolin-1-one]
0.0653 µM | 0.473 µM | O=C1c2ccc(Cl)cc2CCN1c1cncc(COCC(F)(F)F)c1 [Example 202, 6-Chloro-2-[5-(2,2,2-trifluoro-ethoxymethyl)-pyridin-3-yl]-3,4-dihydro-2H-isoquinolin-1-one]
0.0021 µM | 0.0189 µM | Cn1nccc1Cc1cncc(N2CCc3cc(Cl)ccc3C2=O)c1 [Example 208, 6-Chloro-2-[5-(2-methyl-2H-pyrazol-3-ylmethyl)-pyridin-3-yl]-3,4-dihydro-2H-isoquinolin-1-one]
0.0009 µM | 0.0147 µM | Cn1cc(Cc2cncc(N3CCc4cc(Cl)ccc4C3=O)c2)cn1 [Example 209, 6-Chloro-2-[5-(1-methyl-1H-pyrazol-4-ylmethyl)-pyridin-3-yl]-3,4-dihydro-2H-isoquinolin-1-one]
0.0186 µM | 0.13 µM | O=C1c2ccc(Cl)cc2CCN1c1cncc(Cc2cccc(F)c2F)c1 [Example 210]
0.0044 µM | 0.0532 µM | O=C1c2ccc(Cl)cc2CCN1c1cncc(Cc2cc(F)cc(F)c2)c1 [Example 211, 6-Chloro-2-[5-(3,5-difluoro-benzyl)-pyridin-3-yl]-3,4-dihydro-2H-isoquinolin-1-one]
0.0084 µM | 0.0816 µM | O=C1c2ccc(Cl)cc2CCN1c1cncc(Cc2cc(F)ccc2F)c1 [Example 212, 6-Chloro-2-[5-(2,5-difluoro-benzyl)-pyridin-3-yl]-3,4-dihydro-2H-isoquinolin-1-one]
0.0391 µM | 0.278 µM | O=C1c2ccc(Cl)cc2CCN1c1cncc(Cc2ccccc2C(F)(F)F)c1 [Example 213, 6-Chloro-2-[5-(2-trifluoromethyl-benzyl)-pyridin-3-yl]-3,4-dihydro-2H-isoquinolin-1-one]
